Here are results for 1 compound from patent US20250082787A1, “ALGINIC ACID-BASED INJECTABLE HYDROGEL SYSTEM” (National Cancer Center, priority 2018, published 2025).

SMILES strings stand for the structures.

The nature of data set [1]: Persistence of fluorescence after subcutaneous injection in nude mouse (IVIS fluorescence image). It is filed as in vivo. The procedure: In order to see the fluorescence persistence of the alginic acid hydrogel containing indocyanine green-human serum albumin in a nude mouse, it was injected in the form of a gel subcutaneously to the nude mouse through a dual syringe, and then the labeling performance over time was photographed with a fluorescent image device (IVIS Lumina XR, Xenogen Corporation-Caliper, CA, USA). Three solutions to be injected into the animal model were prepared in the same manner as in Preparation Examples 7 to 9. FIG. 7 is a schematic diagram of injecting an alginic acid hydrogel containing indocyanine green-human serum albumin subcutaneously to a nude mouse using a dual syringe.
The solutions of Preparation Examples 7 to 9 were injected subcutaneously to a nude mouse, respectively so that the total volume was 100 μL using a dual syringe.

For data set [2] the following is noted: 2 to 100 μM in distilled water, λex=720 nm.
Experimental: Before developing a surgical marker using indocyanine green and human serum albumin conjugate, in order to determine the appropriate concentration of indocyanine green and human serum albumin conjugate, the two substances were mixed by each concentration to observe change in fluorescence (λex=720 nm) and absorbance.
3 mL of distilled water was added to 1.5 mg of indocyanine green (ICG, purchased from Sigma-Aldrich) and dissolved by stirring to prepare a high concentration of indocyanine green solution. Distilled water was added to the high concentration of indocyanine green solution and mixed through stirring to prepared a 2 to 100 μM solution.

`CC1(C)C(/C=C/C=C/C=C/C=C2\N(CCCCS(=O)(=O)O)c3ccc4ccccc4c3C2(C)C)=[N+](CCCCS(=O)(=O)[O-])c2ccc3ccccc3c21` [indocyanine green]: the “time fluorescence was maintained / emitted (FIG. 8)” value in data set [1] (100 μL subcutaneous, nude mouse, λex=780 nm, λem=845 nm) was “about one”. Further, the “time at which fluorescence (ROI value) was greatest” value in data set [1] (FIG. 10A, nude mouse) was determined as 6 h. Moreover, in data set [1] (FIG. 10C, nude mouse), the “time in which fluorescence signals almost disappeared” value was found to be 48 h. Further, the “fluorescence remaining compared to immediately after injection” value in data set [1] (ROI value, when one day passed) is 16%. For the same compound, in data set [1] (appearance of injected site, nude mouse), the “time after which injected solution spread and disappeared at injection site (FIG. 9)” value is on record as “about 24 hours”. The “concentration up to which maximum fluorescence intensity increased” value in data set [2] was “about 20 μM”.
